The target of one assay is T1, hCRHR1 (Homo sapiens, UniProt P34998).
T1 sequence (P34998 24-415): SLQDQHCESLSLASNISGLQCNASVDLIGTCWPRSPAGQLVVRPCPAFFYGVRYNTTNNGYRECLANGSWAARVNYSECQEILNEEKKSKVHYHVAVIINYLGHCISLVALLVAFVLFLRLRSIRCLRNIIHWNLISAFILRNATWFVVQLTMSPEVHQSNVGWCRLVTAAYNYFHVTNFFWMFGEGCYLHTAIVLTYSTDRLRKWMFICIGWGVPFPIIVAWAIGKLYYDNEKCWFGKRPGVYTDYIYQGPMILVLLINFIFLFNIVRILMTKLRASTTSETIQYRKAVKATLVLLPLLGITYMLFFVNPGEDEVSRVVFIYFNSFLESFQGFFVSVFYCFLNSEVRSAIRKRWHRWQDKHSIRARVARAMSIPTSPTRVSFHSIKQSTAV
The assay can be described thus: HTRF cAMP assay, determination of hCRHR1 potency (peptide libraries 5 conc., purified peptides 11 conc.). In kind it is cell-based. The method in brief:
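CHO-K1 cells stably expressing human CRHR1, thawed from frozen stocks just before use, were stimulated in suspension with agonist peptides. cAMP was measured by HTRF competitive immunoassay (cryptate anti-cAMP antibody vs d2-cAMP).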

The next assay addresses T2, hCRHR2 (Homo sapiens, UniProt Q13324).
T2 sequence (Q13324 1-411): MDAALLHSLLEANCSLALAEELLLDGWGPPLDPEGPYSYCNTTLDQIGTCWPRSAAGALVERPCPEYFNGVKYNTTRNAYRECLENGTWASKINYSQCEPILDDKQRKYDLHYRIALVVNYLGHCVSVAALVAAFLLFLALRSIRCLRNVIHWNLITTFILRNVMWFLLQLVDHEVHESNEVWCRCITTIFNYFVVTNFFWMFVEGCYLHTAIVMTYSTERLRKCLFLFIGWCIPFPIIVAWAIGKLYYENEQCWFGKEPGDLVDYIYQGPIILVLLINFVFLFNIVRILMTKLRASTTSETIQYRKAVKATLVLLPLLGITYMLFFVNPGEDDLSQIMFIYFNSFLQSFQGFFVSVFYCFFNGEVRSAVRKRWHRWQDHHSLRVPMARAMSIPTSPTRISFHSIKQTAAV
Kind of assay: HTRF cAMP assay, determination of hCRHR2 potency (peptide libraries 5 conc., purified peptides 11 conc.). In kind it is cell-based. A digest of the protocol: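 CHO-K1 cells stably expressing human CRHR2 were thawed from frozen stocks immediately before use and assayed in suspension with agonist peptides. cAMP was measured by time-resolved FRET in a competitive immunoassay between cryptate-labelled anti-cAMP antibody and d2-labelled cAMP. EC50 values came from nonlinear regression, sigmoid variable-slope fit.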
A general note: Time-resolved FRET reads energy transfer from a long-lived donor to a nearby acceptor.

[1] abbreviates: Table 4, library peptides having X^38 = Nle, read-out: hCRHR1 pEC50 (converted).
[2] abbreviates: Table 4, library peptides having X^38 = Nle, read-out: hCRHR2 pEC50 (converted).
[3] abbreviates: Table 3, matched molecular pairs X^38 L vs Nle, peptide library of Example 4, read-out: hCRHR1 pEC50 (converted).
Where [4] appears, read: Table 3, matched molecular pairs X^38 L vs Nle, peptide library of Example 4, read-out: hCRHR2 pEC50 (converted).

Like-named read-outs stand apart in the source and are kept apart here. Starred links: 1 amine or outer side, 2 acyl side, 3 side chain; linkers in the order of their positions; H or OH if unused. Non-standard residues stand in square brackets, D forms with d. Residues, ends and D or L forms follow the SMILES beside them. Groups on a side chain read outwards from the residue. *: point of attachment. C20 diacid = O=C(O)CCCCCCCCCCCCCCCCCCC(=O)*; γGlu = O=C(O)[C@H](CCC(=O)[*:2])N[*:1]; NMeI = CC[C@H](C)[C@H](NC)C(=O)O; Nle = CCCC[C@H](N)C(=O)O; AEEA = NCCOCCOCC(=O)O; Aib = CC(C)(N)C(=O)O

On to `CC[C@H](C)[C@H](N)C(=O)N[C@H](C(=O)N[C@@H](CC(C)C)C(=O)N[C@@H](CO)C(=O)N[C@@H](CC(C)C)C(=O)N[C@@H](CC(=O)O)C(=O)N[C@H](C(=O)N1CCC[C@H]1C(=O)N[C@H](C(=O)NCC(=O)N[C@@H](CC(C)C)C(=O)N[C@@H](CC(C)C)C(=O)N[C@@H](CCC(N)=O)C(=O)N[C@H](C(=O)N[C@@H](CC(C)C)C(=O)N[C@@H](CC(C)C)C(=O)N[C@@H](CCC(=O)O)C(=O)N[C@@H](CCC(N)=O)C(=O)N[C@@H](C)C(=O)N[C@@H](CCCNC(=N)N)C(=O)N[C@@H](C)C(=O)N[C@@H](CCCNC(=N)N)C(=O)N[C@@H](CCC(N)=O)C(=O)N[C@@H](C)C(=O)N[C@@H](CCCNC(=N)N)C(=O)N[C@@H](CCC(=O)O)C(=O)N[C@@H](CCC(N)=O)C(=O)N[C@@H](C)C(=O)N[C@@H](CCCCNC(=O)COCCOCCNC(=O)COCCOCCNC(=O)CC[C@H](NC(=O)CC[C@H](NC(=O)CCCCCCCCCCCCCCCCCCC(=O)O)C(=O)O)C(=O)O)C(=O)N[C@H](C(=O)N[C@@H](CC(N)=O)C(=O)N[C@@H](C)C(=O)N[C@@H](CCC(=O)O)C(=O)N[C@H](C(=O)N[C@@H](CC(C)C)C(=O)N[C@@H](C)C(=O)N[C@@H](CCC(=O)O)C(=O)N[C@H](C(N)=O)C(C)C)[C@@H](C)CC)[C@@H](C)O)[C@@H](C)CC)[C@@H](C)CC)C(C)C)C(C)C` [compound 52] (H-IVLSLDVPIGLLQILLEQARARQAREQAK([AEEA-AEEA-γGlu-γGlu-C20 diacid])TNAEILAEV-NH2), for which the EC50 is 1580 nM on hCRHR1 (library peptides, matched molecular pairs L vs Nle in position X^38, read-out: Potency hCRHR1 pEC50 (converted)) and 0.631 nM at hCRHR2 (library peptides, matched molecular pairs L vs Nle in position X^38, read-out: Potency hCRHR2 pEC50 (converted)).
Consider `CCCC[C@H](NC(=O)[C@@H](NC(=O)[C@H](CCC(=O)O)NC(=O)[C@H](C)NC(=O)[C@H](CC(N)=O)NC(=O)C(C)(C)NC(=O)[C@H](CCCCNC(=O)COCCOCCNC(=O)COCCOCCNC(=O)CC[C@H](NC(=O)CC[C@H](NC(=O)CCCCCCCCCCCCCCCCCCC(=O)O)C(=O)O)C(=O)O)NC(=O)[C@H](C)NC(=O)[C@H](CCC(N)=O)NC(=O)[C@H](CCC(=O)O)NC(=O)[C@H](CCCNC(=N)N)NC(=O)[C@H](C)NC(=O)[C@H](C)NC(=O)[C@H](CCCNC(=N)N)NC(=O)[C@H](C)NC(=O)[C@H](CCCNC(=N)N)NC(=O)[C@H](C)NC(=O)[C@H](CCC(N)=O)NC(=O)[C@@H](NC(=O)[C@H](CC(C)C)NC(=O)[C@H](CC(C)C)NC(=O)[C@@H](NC(=O)[C@H](CCC(N)=O)NC(=O)[C@H](CC(C)C)NC(=O)[C@H](CC(C)C)NC(=O)CNC(=O)[C@@H](NC(=O)[C@@H]1CCCN1C(=O)[C@@H](NC(=O)[C@H](CC(=O)O)NC(=O)[C@H](CC(C)C)NC(=O)[C@H](CO)NC(=O)[C@H](CC(C)C)NC(=O)[C@@H](NC(=O)[C@@H](NC)[C@@H](C)CC)C(C)C)C(C)C)[C@@H](C)CC)[C@@H](C)CC)C(C)C)[C@@H](C)CC)C(=O)N[C@@H](C)C(=O)N[C@@H](CCC(=O)O)C(=O)N[C@H](C(N)=O)C(C)C` [compound 138] (H-[NMeI]VLSLDVPIGLLQILLVQARARAAREQAK([AEEA-AEEA-γGlu-γGlu-C20 diacid])[Aib]NAEI[Nle]AEV-NH2), for which the EC50 at hCRHR1 (setting [1]) is 1000 nM; on hCRHR2 (setting [2]), 0.0158 nM.
In the same order, the values of `CCCC[C@H](NC(=O)[C@@H](NC(=O)[C@H](CCC(=O)O)NC(=O)[C@H](C)NC(=O)[C@H](CC(N)=O)NC(=O)C(C)(C)NC(=O)[C@H](CCCCNC(=O)COCCOCCNC(=O)COCCOCCNC(=O)CC[C@H](NC(=O)CC[C@H](NC(=O)CCCCCCCCCCCCCCCCCCC(=O)O)C(=O)O)C(=O)O)NC(=O)[C@H](C)NC(=O)[C@H](CCC(N)=O)NC(=O)[C@H](CCC(=O)O)NC(=O)[C@H](CCCNC(=N)N)NC(=O)[C@H](C)NC(=O)[C@H](C)NC(=O)[C@H](CCCNC(=N)N)NC(=O)[C@H](C)NC(=O)[C@H](CCCNC(=N)N)NC(=O)[C@H](C)NC(=O)[C@H](CCC(N)=O)NC(=O)[C@@H](NC(=O)[C@H](CC(C)C)NC(=O)[C@H](CC(C)C)NC(=O)[C@@H](NC(=O)[C@H](CCC(N)=O)NC(=O)[C@H](CC(C)C)NC(=O)[C@H](CC(C)C)NC(=O)CNC(=O)[C@@H](NC(=O)[C@@H]1CCCN1C(=O)[C@@H](NC(=O)[C@H](CC(=O)O)NC(=O)[C@H](CC(C)C)NC(=O)[C@H](CO)NC(=O)[C@H](CC(C)C)NC(=O)[C@@H](NC(=O)[C@@H](NC)[C@@H](C)CC)C(C)C)C(C)C)[C@@H](C)CC)[C@@H](C)CC)[C@@H](C)O)[C@@H](C)CC)C(=O)N[C@@H](C)C(=O)N[C@@H](CCC(=O)O)C(=O)N[C@H](C(N)=O)C(C)C` [compound 134] (H-[NMeI]VLSLDVPIGLLQILLTQARARAAREQAK([AEEA-AEEA-γGlu-γGlu-C20 diacid])[Aib]NAEI[Nle]AEV-NH2) are 794 nM and 0.00794 nM.
For the molecule `CC[C@H](C)[C@H](N)C(=O)N[C@H](C(=O)N[C@@H](CC(C)C)C(=O)N[C@@H](CO)C(=O)N[C@@H](CC(C)C)C(=O)N[C@@H](CC(=O)O)C(=O)N[C@H](C(=O)N1CCC[C@H]1C(=O)N[C@H](C(=O)NCC(=O)N[C@@H](CC(C)C)C(=O)N[C@@H](CC(C)C)C(=O)N[C@@H](CCC(N)=O)C(=O)N[C@H](C(=O)N[C@@H](CC(C)C)C(=O)N[C@@H](CC(C)C)C(=O)N[C@@H](CCC(=O)O)C(=O)N[C@@H](CCC(N)=O)C(=O)N[C@@H](C)C(=O)N[C@@H](CCCNC(=N)N)C(=O)N[C@@H](C)C(=O)N[C@@H](CCCNC(=N)N)C(=O)N[C@@H](C)C(=O)N[C@@H](CCC(N)=O)C(=O)N[C@@H](CCCNC(=N)N)C(=O)N[C@@H](CCC(N)=O)C(=O)N[C@@H](CCC(N)=O)C(=O)N[C@@H](C)C(=O)N[C@@H](CCCCNC(=O)COCCOCCNC(=O)COCCOCCNC(=O)CC[C@H](NC(=O)CC[C@H](NC(=O)CCCCCCCCCCCCCCCCCCC(=O)O)C(=O)O)C(=O)O)C(=O)N[C@H](C(=O)N[C@@H](CC(N)=O)C(=O)N[C@@H](C)C(=O)N[C@@H](CCC(=O)O)C(=O)N[C@H](C(=O)N[C@@H](CC(C)C)C(=O)N[C@@H](C)C(=O)N[C@@H](CCC(=O)O)C(=O)N[C@H](C(N)=O)C(C)C)[C@@H](C)CC)[C@@H](C)O)[C@@H](C)CC)[C@@H](C)CC)C(C)C)C(C)C` [SEQ ID NO: 46] (H-IVLSLDVPIGLLQILLEQARARAQRQQAK([AEEA-AEEA-γGlu-γGlu-C20 diacid])TNAEILAEV-NH2), the figures for the EC50 on hCRHR1 (setting [3]) and at hCRHR2 (setting [4]) were 2510 nM and 0.316 nM, respectively.
Turning to `CC[C@H](C)[C@H](N)C(=O)N[C@H](C(=O)N[C@@H](CC(C)C)C(=O)N[C@@H](CO)C(=O)N[C@@H](CC(C)C)C(=O)N[C@@H](CC(=O)O)C(=O)N[C@H](C(=O)N1CCC[C@H]1C(=O)N[C@H](C(=O)NCC(=O)N[C@@H](CC(C)C)C(=O)N[C@@H](CC(C)C)C(=O)N[C@@H](CCC(N)=O)C(=O)N[C@H](C(=O)N[C@@H](CC(C)C)C(=O)N[C@@H](CC(C)C)C(=O)N[C@@H](CCC(=O)O)C(=O)N[C@@H](CCC(N)=O)C(=O)N[C@@H](C)C(=O)N[C@@H](CCCNC(=N)N)C(=O)N[C@@H](C)C(=O)N[C@@H](CCCNC(=N)N)C(=O)N[C@@H](CCC(N)=O)C(=O)N[C@@H](C)C(=O)N[C@@H](CCCNC(=N)N)C(=O)N[C@@H](CCC(=O)O)C(=O)N[C@@H](CCC(N)=O)C(=O)N[C@@H](C)C(=O)N[C@@H](CCCCNC(=O)COCCOCCNC(=O)COCCOCCNC(=O)CC[C@H](NC(=O)CC[C@H](NC(=O)CCCCCCCCCCCCCCCCCCC(=O)O)C(=O)O)C(=O)O)C(=O)N[C@H](C(=O)N[C@@H](CC(N)=O)C(=O)N[C@@H](C)C(=O)N[C@@H](CCC(=O)O)C(=O)N[C@H](C(=O)N[C@@H](CC(C)C)C(=O)N[C@@H](C)C(=O)N[C@@H](CCC(=O)O)C(=O)N[C@H](C(N)=O)[C@@H](C)CC)[C@@H](C)CC)[C@@H](C)O)[C@@H](C)CC)[C@@H](C)CC)C(C)C)C(C)C` [SEQ ID NO: 29] (H-IVLSLDVPIGLLQILLEQARARQAREQAK([AEEA-AEEA-γGlu-γGlu-C20 diacid])TNAEILAEI-NH2), the EC50 on hCRHR1 (setting [3]) was 39800 nM; on hCRHR2 (setting [4]) it was 0.251 nM.

These data come from patent EP4810052A2, “HCRHR2 SELECTIVE POLYPEPTIDES” (Gubra A/S, priority 2023, dated 2026).
